Results: patent publication US7189679B2, “Herbicidal 3-amino-2-thiomethylbenzoylpyrazoles” (Bayer CropScience GmbH, priority 2004, dated 2007)

Tests used:
Type in all cases: in vivo
Setaria viridis = assay: Post-emergence herbicidal action against weed plants; conditions: three-leaf stage, 320 g/ha, scored after 3 to 4 weeks
Method: (§1) Seeds of mono- and dicotyledonous weed plants are placed in sandy loam in cardboard pots, covered with soil and grown in the greenhouse under good growth conditions. Two to three weeks after sowing, the test plants are treated at the three-leaf stage. The compounds according to the invention, formulated as wettable powders or as emulsifiable concentrates, are sprayed at various dosages onto the surface of the green plant parts at an application rate of 600 to 800 l of water per ha (converted). After the test plants have been left to stand in the greenhouse for 3 to 4 weeks under optimal growth conditions, the effect of the compounds is scored.

Fallopia convolvulus = assay: as above; conditions: three-leaf stage, 320 g/ha, scored after 3 to 4 weeks
Method: as §1

Amaranthus retroflexus = assay: as above; conditions: three-leaf stage, 320 g/ha, scored after 3 to 4 weeks
Method: as §1

Echinochloa crus-galli [1] = assay: as above; conditions: three-leaf stage, 320 g/ha, scored after 3 to 4 weeks
Method: as §1

Stellaria media = assay: as above; conditions: three-leaf stage, 320 g/ha, scored after 3 to 4 weeks
Method: as §1

Chenopodium album = assay: as above; conditions: three-leaf stage, 320 g/ha, scored after 3 to 4 weeks
Method: as §1

Sinapis arvensis = assay: as above; conditions: three-leaf stage, 320 g/ha, scored after 3 to 4 weeks
Method: as §1

Echinochloa crus-galli [2] = assay: Crop plant tolerance test, action against weed plants; conditions: 100 g/ha, visual scoring four to five weeks after application
Method: as §1
(§2) In further greenhouse experiments, seeds of barley and of monocotyledonous and dicotyledonous weed plants are placed in sandy loam, covered with soil and placed in the greenhouse until the plants have developed two to three true leaves. Then they are treated with the compounds of the formula (I) according to the invention, as described above in section 2.

Sagittaria pygmaea = assay: as above; conditions: 100 g/ha, visual scoring four to five weeks after application
Method: as §1, with “After the test plants have been left to stand in the greenhouse for 3 to 4 weeks under optimal growth conditions, the effect of the compounds is scored.” left out
as §2

Cyperus serotinus = assay: as above; conditions: 100 g/ha, visual scoring four to five weeks after application
Method: as §1, with “After the test plants have been left to stand in the greenhouse for 3 to 4 weeks under optimal growth conditions, the effect of the compounds is scored.” left out
as §2

Scirpus juncoides = assay: as above; conditions: 100 g/ha, visual scoring four to five weeks after application
Method: as §1, with “After the test plants have been left to stand in the greenhouse for 3 to 4 weeks under optimal growth conditions, the effect of the compounds is scored.” left out
as §2

rice = assay: Crop plant tolerance test, damage to crop plant; conditions: 100 g/ha, visual scoring four to five weeks after application

Compound	activity against Setaria viridis (Setaria viridis)	activity against Fallopia convolvulus (Fallopia convolvulus)	activity against Amaranthus retroflexus (Amaranthus retroflexus)	activity against Echinochloa crus-galli (Echinochloa crus-galli [1])	activity against Stellaria media (Stellaria media)	activity against Chenopodium album (Chenopodium album)	activity against Sinapis arvensis (Sinapis arvensis)	action against Echinochloa crus-galli (Echinochloa crus-galli [2])	action against Sagittaria pygmaea (Sagittaria pygmaea)	action against Cyperus serotinus (Cyperus serotinus)	action against Scirpus juncoides (Scirpus juncoides)	damage to the crop plant rice (rice)
CCCS(=O)(=O)Oc1c(C(=O)c2ccc(Br)c(N)c2CS(C)(=O)=O)c(C)nn1C [compound 4]	at least 90%	at least 90%	at least 90%	at least 90%	at least 90%	at least 90%	at least 90%	–	–	–	–	–
CCn1ncc(C(=O)c2ccc(Br)c(N)c2CS(C)(=O)=O)c1O [compound 6]	–	–	–	–	–	–	–	at least 95%	at least 95%	at least 95%	at least 95%	no damage
